One series has as its system Echinochloa oryzicola. The series is described as follows: Submerged foliar treatment test (Test Example 3). Format: in vivo. The following applies: water depth 3 cm, cotyledon to 1-leaf stage, wettable powder, active ingredient 10 g/a, 28th day from the treatment. How it is done: (§1) The herbicidal effect was evaluated in terms of herbicidal rate obtained from the following equation: Herbicidal rate (%)=[1−(Weight of weeds above the ground in a treated plot)/(Weight of weeds above the ground in a non-treated plot)]×100
(§2) and was expressed by herbicidal index according to the following criteria.
(§3) Alluvial soil from a paddy field was put in a resin-made vat having an area of 200 cm^2. After fertilization, seeds of Echinochloa oryzicola, Rotala indica and Scirpus juncoides were cast on the soil and uniformly covered with the soil, and water was poured onto the soil to keep a water depth of 3 cm. Then, cultivation was continued in a greenhouse, and when the weeds to be tested reached the cotyledon stage to 1-leaf stage, the wettable powder obtained in Formulation Example 1 was diluted with water and a predetermined amount thereof was added dropwise uniformly to the weeds by means of a pipette to give 10 g of the active ingredient per an are. Thereafter, cultivation was further continued in the greenhouse, and the herbicidal effect was examined on the 28th day from the treatment. The results obtained are shown in Table 9 (the compound numbers in Table 9 correspond to those in Tables 1 to 6).

Another series concerns Rotala indica. The series is described as follows: Submerged foliar treatment test (Test Example 3). As to conditions: water depth 3 cm, cotyledon to 1-leaf stage, wettable powder, active ingredient 10 g/a, 28th day from the treatment. Format: in vivo. How it is done: as §1, §2, §3
A further series has as its system Scirpus juncoides. The series is described as follows: Submerged foliar treatment test (Test Example 3). Format: in vivo. The following applies: water depth 3 cm, cotyledon to 1-leaf stage, wettable powder, active ingredient 10 g/a, 28th day from the treatment. How it is done: as §1, §2, §3

As to `Cc1cc2c(-c3cccc(C(F)(F)F)c3)nc(COCC(F)(F)F)nc2s1` [Compound No. 6-17, 6-methyl-2-[(2,2,2-trifluoroethoxy)methyl]-4-[3-(trifluoromethyl)phenyl]thieno[2,3-d]pyrimidine], the melting point lay in the range of 40 to 41 °C. The “Herbicidal effect Echinochloa oryzicola (herbicidal index)” value in the series with Echinochloa oryzicola is reported as 5 (91 to 100). Moreover, the “Herbicidal effect Rotala indica (herbicidal index)” value with Rotala indica is recorded as 5 (91 to 100). Besides, the “Herbicidal effect Scirpus juncoides (herbicidal index)” value in the series with Scirpus juncoides is 3 (51 to 70).
On to `Cc1cc2c(-c3cccc(C(F)(F)F)c3)nc(-c3ccc(C(F)(F)F)cc3)nc2s1` [Compound No. 6-18, 6-methyl-2-[4-(trifluoromethyl)phenyl]-4-[3-(trifluoromethyl)phenyl]thieno[2,3-d]pyrimidine], for which the melting point lay within 134 to 136 °C. Moreover, the “Herbicidal effect Echinochloa oryzicola (herbicidal index)” value with Echinochloa oryzicola is listed as 3 (51 to 70). Further, the “Herbicidal effect Rotala indica (herbicidal index)” value in the series with Rotala indica is on record as 4 (71 to 90). Also, the “Herbicidal effect Scirpus juncoides (herbicidal index)” value in the series with Scirpus juncoides is 1 (6 to 30).
The corresponding values for `Cc1cc2c(Oc3cccc(C(F)(F)F)c3)nc(OCC(F)(F)F)nc2s1` [Compound No. 6-129, 6-methyl-2-(2,2,2-trifluoroethoxy)-4-[3-(trifluoromethyl)phenoxy]thieno[2,3-d]pyrimidine] are 124 to 125 °C, 5 (91 to 100), 4 (71 to 90) and 2 (31 to 50).
Taken in the same sequence, the figures for `Cc1cc2c(-c3cccc(Cl)c3)nc(Cl)nc2s1` [Compound No. 5-15, 2-chloro-4-(3-chlorophenyl)-6-methylthieno[2,3-d]pyrimidine] were 118 to 120 °C, 5 (91 to 100), 5 (91 to 100) and 3 (51 to 70).
On to `Cc1cc2c(-c3cccc(C(F)(F)F)c3)nc(C#N)nc2s1` [Compound No. 6-10, 2-cyano-6-methyl-4-[3-(trifluoromethyl)phenyl]thieno[2,3-d]pyrimidine], for which the melting point lay within 121 to 122 °C. Besides, the “Herbicidal effect Echinochloa oryzicola (herbicidal index)” value with Echinochloa oryzicola is given as 5 (91 to 100). Also, the “Herbicidal effect Rotala indica (herbicidal index)” value in the series with Rotala indica was 5 (91 to 100). Further, the “Herbicidal effect Scirpus juncoides (herbicidal index)” value with Scirpus juncoides is 4 (71 to 90).

The melting point is the temperature, or range, at which the solid turns liquid.
